Target: T1, human β3 adrenergic receptor (Homo sapiens, UniProt P13945)
T1 construct: expressed in transfected cells; host or cells: DXB-11 Chinese hamster ovary (CHO) cell line, stably transfected (phd expression vector)
Experiment: whole cell receptor coupled c-AMP assay, human β3 receptor in CHO cells (EC50, Emax relative to isoproterenol)
Format: cell-based
Conditions: % intrinsic activity relative to isoproterenol maximal response; average of at least 3 runs; c-AMP in transfected CHO cells
Source text: The genes encoding the human β1-adrenergic receptor (Frielle et al., Proc. Natl. Acad. Sci., 84:7920-7924, 1987), the human β2-adrenergic receptor (Kobika et al., Proc. Natl. Acad. Sci., 84:46-50, 1987, Emorine et al., Proc. Natl. Acad. Sci., 84:6995-6999, 1987) and the human β3 adrenergic receptor (Granneman et al., Molecular Pharmacology, 44(2):264-70, 1993) are individually subcloned into a phd expression vector (Grinnell et al., Bio/Technology, 5:1189-1192, 1987) and transfected into the DXB-11 Chinese hamster ovary (CHO) cell line by calcium phosphate precipitation methodology. The stably transfected cells are grown to 95% confluency in 95% Dulbecco's modified Eagles Medium (DMEM), 5% fetal bovine serum and 0.01% proline. Media is removed and the cells are washed with phosphate buffered (pH 7.4) saline (without magnesium and calcium). Cells are then lifted using an enzyme free cell dissociation solution (Specialty Media, Lavallette, N.J.) and pelleted by centrifugation.
Cells from each of the above cell lines are resuspended and added (20,000/well) to a 96-well plate. Cells are incubated at 37° C. with representative compounds of the invention for 20 minutes in buffer (Hank's balanced salt solution, 10 mM HEPES, 0.1% BSA, 1 mM L-ascorbic acid, 0.2% dimethyl sulfoxide, 1 mm 3-isobutyl-1-methylxanthine, pH 7.4). After halting the incubation with quench buffer (50 mM Na Acetate, 0.25% Triton X-100, pH 5.8), the c-AMP level is quantified by scintillation proximity assay (SPA) using a modification of the commercially available c-AMP kit (Amersham, Arlington Heights, Ill.) with rabbit anti-cAMP antibody (ICN Biomedicals, Aurora, Ohio) for the kit.
Sigmoidal dose response curves, from the whole cell receptor coupled c-AMP assay are fit to a four parameter logistic equation using non linear regression: y=(a−d)/(1+(Dose/c)^b)+d where a and d are responses at zero and maximal dose, b is the slope factor and c is the EC50 as previously described (DeLean et al., Am. J. Physiol., 235, E97-E102, 1978). EC50 is assessed as the concentration producing 50% of the maximum response to each agonist.
Isoproterenol is accepted in the art as a non-selective β3 agonist and is widely used as a comparator in evaluating the activity of compounds. See Trends in Pharm. Sci., 15:3, 1994. The % intrinsic activity (Emax) of representative compounds of the invention is assessed relative to isoproterenol by the compound's maximal response divided by the isoproterenol maximal response times 100.

T1 sequence (P13945 whole entry): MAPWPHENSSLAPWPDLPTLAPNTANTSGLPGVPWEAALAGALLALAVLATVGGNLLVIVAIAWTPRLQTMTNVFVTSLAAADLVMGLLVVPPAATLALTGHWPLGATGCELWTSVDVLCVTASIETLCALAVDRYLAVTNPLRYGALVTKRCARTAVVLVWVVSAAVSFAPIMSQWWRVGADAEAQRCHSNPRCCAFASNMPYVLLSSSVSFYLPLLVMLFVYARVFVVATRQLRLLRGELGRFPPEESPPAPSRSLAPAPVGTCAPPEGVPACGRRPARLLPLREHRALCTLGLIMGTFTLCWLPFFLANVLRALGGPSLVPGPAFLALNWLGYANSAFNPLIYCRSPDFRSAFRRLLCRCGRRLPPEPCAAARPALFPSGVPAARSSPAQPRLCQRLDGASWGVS

Emax (%) ± SEM	SMILES
14.4 ± 1.7%	CC(C)(Cc1ccc(Oc2ncccc2C#N)cc1)NC[C@H](O)COc1ccccc1-c1cccnc1 [Example 390]
40.3 ± 2.8%	CC(C)(Cc1ccc(Oc2ccc(C(N)=O)cn2)cc1)NC[C@H](O)COc1ccccc1-c1cc2ccccc2o1 [Example 370]
64.0 ± 6.0%	CC(C)(Cc1ccc(Oc2ncccc2C(N)=O)cc1)NC[C@H](O)COc1ccccc1-c1ccsc1.Cl [Example 446]

Continued, compound first:

SMILES	Emax (%) ± SEM
CC(=O)c1ccc(-c2ccccc2OC[C@@H](O)CNC(C)(C)Cc2ccc(Oc3ccc(S(C)(=O)=O)cc3)cc2)s1.Cl [Example 394]	76.9 ± 5.0%
CC(C)(Cc1ccc(Oc2cccnc2C#N)cc1)NC[C@H](O)COc1ccccc1-c1ccco1.Cl [Example 425]	67.1 ± 3.0%
CC(C)(Cc1ccc(Oc2ncccc2C#N)cc1)NC[C@H](O)COc1ccccc1-c1cc2ccccc2s1 [Example 386]	46.9 ± 6.7%
CC(C)(Cc1ccc(Oc2ncccc2C(N)=O)cc1)NC[C@H](O)COc1ccccc1-c1cc2ccccc2o1 [Example 372]	56.3 ± 4.8%

Same assay, conditions: Emax ± standard error of the mean; average of at least 3 runs except where n = 1; compound tested in the isolated form listed

Emax (%) ± SEM	SMILES
29.5 n = 1%	COC(=O)c1ccc(Oc2ccc(CC(C)(C)NC[C@H](O)COc3ccccc3-c3ccn[nH]3)cc2)nc1 [Example 118]
41.3 ± 4.2%	CC(C)(Cc1ccc(Oc2ccc(C(N)=O)cc2)cc1)NC[C@H](O)COc1ccccc1-n1cccc1.Cl [Example 269]
21.0 ± 3.4%	CC(C)(Cc1ccc(Oc2ncccc2C#N)cc1)NC[C@H](O)COc1ccccc1N1CCCC1=O [Example 58]
71.8 ± 2.5%	CC(C)(Cc1ccc(Oc2ncccc2C(N)=O)cc1)NC[C@H](O)COc1ccccc1-c1ccon1.Cl [Example 89]
80.7 ± 4.4%	CC(C)(Cc1ccc(Oc2ncccc2C(N)=O)cc1)NC[C@H](O)COc1ccccc1-c1cccs1.Cl [Example 69]
56.4 ± 8.3%	CC(C)(Cc1ccc(Oc2ccccc2C(N)=O)cc1)NC[C@H](O)COc1ccccc1-n1cccc1.Cl [Example 270]
24.6 ± 3.8%	CC(C)(Cc1ccc(Oc2ccc(C#N)cn2)cc1)NC[C@H](O)COc1ccccc1-c1cccs1.O=C(O)C(=O)O [Example 285]
35.7 ± 2.8%	CC(C)(Cc1ccc(Oc2ccc(C(N)=O)cn2)cc1)NC[C@H](O)COc1ccccc1-n1ccc(C#N)c1.Cl [Example 272]
54.5 ± 0.8%	CC(C)(Cc1ccc(Oc2ccc(C(N)=O)nc2)cc1)NC[C@H](O)COc1ccccc1-c1ccon1.Cl [Example 298]
45.9 ± 3.9%	CC(C)(Cc1ccc(Oc2ccc(C(N)=O)cc2)cc1)NC[C@H](O)COc1ccccc1-c1ccon1.Cl [Example 299]
52.3 ± 6.6%	CC(C)(Cc1ccc(Oc2ccc(C(N)=O)o2)cc1)NC[C@H](O)COc1ccccc1-c1cscn1.Cl [Example 261]

More lines, now with the values behind:

SMILES	Emax (%) ± SEM
CC(C)(Cc1ccc(Oc2ccc(S(C)(=O)=O)cc2)cc1)NC[C@H](O)COc1cc(F)ccc1C1=CC(=O)OC1.Cl [Example 136]	<10%
CCOC(=O)c1cccnc1Oc1ccc(CC(C)(C)NC[C@H](O)COc2ccccc2-c2cccs2)cc1.O=C(O)C(F)(F)F [Example 108]	87.1 ± 11.9%
CC(C)(Cc1ccc(Oc2ccc(C#N)cc2F)cc1)NC[C@H](O)COc1ccccc1-c1ccno1.O=C(O)C(F)(F)F [Example 189]	35.1 ± 5.2%
CC(C)(Cc1ccc(Oc2ccc(C(N)=O)nc2)cc1)NC[C@H](O)COc1ccccc1-c1nccs1.O=C(O)C(F)(F)F [Example 206]	64.2 ± 8.1%
CCOC(=O)c1cccnc1Oc1ccc(CC(C)(C)NC[C@H](O)COc2ccccc2-c2ccn[nH]2)cc1 [Example 111]	23.6 n = 1%
CC(C)(Cc1ccc(Oc2cccnc2C(N)=O)cc1)NC[C@H](O)COc1ccccc1-c1cccs1.O=C(O)C(F)(F)F [Example 196]	74.4 ± 3.3%
CC(C)(Cc1ccc(Oc2ccc(S(C)(=O)=O)cc2)cc1)NC[C@H](O)COc1ccccc1-c1nccs1.O=C(O)C(F)(F)F [Example 131]	43.5 ± 1.4%
CC(C)(Cc1ccc(Oc2ccc(C(N)=O)cc2Cl)cc1)NC[C@H](O)COc1ccccc1-c1ccno1.O=C(O)C(F)(F)F [Example 166]	58.3 ± 9.5%
CC(C)(Cc1ccc(Oc2ccc(S(C)(=O)=O)cc2F)cc1)NC[C@H](O)COc1ccccc1-c1cccs1.O=C(O)C(F)(F)F [Example 223]	63.7 ± 3.1%
CC(C)(Cc1ccc(Oc2ccc(C(N)=O)cc2)cc1)NC[C@H](O)COc1ccccc1-c1nccs1.O=C(O)C(F)(F)F [Example 124]	46.7 ± 3.6%
CC(C)(Cc1ccc(Oc2cccc(Cl)n2)cc1)NC[C@H](O)COc1ccccc1-c1nccs1.O=C(O)C(F)(F)F [Example 176]	57.0 ± 7.6%
CC(C)(Cc1ccc(Oc2ccc(C(N)=O)cc2Cl)cc1)NC[C@H](O)COc1ccccc1-c1nccs1.O=C(O)C(F)(F)F [Example 165]	49.7 ± 3.9%
CC(C)(Cc1ccc(Oc2ncccc2C(N)=O)cc1)NC[C@H](O)COc1ccccc1-c1ccncn1 [Example 76]	48.8 ± 5.5%
CC(C)(Cc1ccc(Oc2ncccc2Cl)cc1)NC[C@H](O)COc1ccccc1-c1nccs1.O=C(O)C(F)(F)F [Example 179]	62.2 ± 8.6%
CC(C)(Cc1ccc(Oc2cccnc2C#N)cc1)NC[C@H](O)COc1ccccc1-c1cscn1.Cl [Example 241]	47.0 ± 2.5%
CC(C)(Cc1ccc(Oc2ccccn2)cc1)NC[C@H](O)COc1ccccc1-c1ccno1.O=C(O)C(F)(F)F [Example 2]	43.6 ± 9.7%
CC(C)(Cc1ccc(Oc2ccc(S(C)(=O)=O)cc2F)cc1)NC[C@H](O)COc1ccccc1-c1cscn1.Cl [Example 250]	31.6 ± 3.1%
CC(C)(Cc1ccc(Oc2ncccc2C(N)=O)cc1)NC[C@H](O)COc1ccccc1-c1nccs1 [Example 70]	73.8 ± 6.0%
COC(=O)c1ccc(Oc2ccc(CC(C)(C)NC[C@H](O)COc3ccccc3-c3cccs3)cc2)c(Cl)c1 [Example 139]	62.2 ± 7.4%
CC(C)(Cc1ccc(Oc2ncc(Cl)cc2Cl)cc1)NC[C@H](O)COc1ccccc1-c1cccs1.O=C(O)C(F)(F)F [Example 173]	87.9 ± 4.5%
CC(C)(Cc1ccc(Oc2ccc(S(C)(=O)=O)cc2)cc1)NC[C@H](O)COc1ccccc1-c1cccs1.O=C(O)C(F)(F)F [Example 129]	53.2 ± 4.8%
CCOC(=O)c1cccnc1Oc1ccc(CC(C)(C)NC[C@H](O)COc2ccccc2-c2ccn(C)n2)cc1 [Example 106]	53.2 ± 2.4%
CC(C)(Cc1ccc(Oc2cccc(Cl)n2)cc1)NC[C@H](O)COc1ccccc1-c1cccs1.O=C(O)C(F)(F)F [Example 175]	67.4 ± 3.9%
CC(C)(Cc1ccc(Oc2ncccc2C#N)cc1)NC[C@H](O)COc1ccc(-c2ccno2)cc1.O=C(O)C(F)(F)F [Example 62]	24.7 ± 5.2%
Cn1ccc(-c2ccccc2OC[C@@H](O)CNC(C)(C)Cc2ccc(Oc3ccc(S(C)(=O)=O)cc3)cc2)n1 [Example 128]	40.6 n = 1%
CC(C)(Cc1ccc(Oc2cccc(Cl)n2)cc1)NC[C@H](O)COc1ccccc1-c1ccno1.O=C(O)C(F)(F)F [Example 177]	46.0 ± 1.7%
CC(C)(Cc1ccc(Oc2ncccc2C(N)=O)cc1)NC[C@H](O)COc1ccccc1-c1ccnc(N)n1 [Example 90]	31.5 ± 2.8%
